One experiment has as its target T1, HCV NS5B polymerase (Hepatitis C virus genotype 1a, UniProt P27958).
T1 construct: pre-incubated with the RNA template and NS5B polymerase protein; purchased Replizyme
The experiment in a line: Replizyme HCV heterotemplate radioactive RNA-dependent RNA-polymerase (RdRp) assay. The experiment is classed as biochemical. The following applies: pre-incubated 30 minutes at 37° C., reaction 90 minutes at 37° C.; read-out: HCV NS5B inhibition EC50. Here is the method:
The compounds were tested in the Replizyme HCV heterotemplate radioactive RNA-dependent RNA-polymerase (RdRp) assay. The test compounds were pre-incubated with the RNA template and NS5B polymerase protein at 37° C. for 30 minutes. The RdRp reaction was initiated with the addition of the NTPs to the buffer-NS5B-compound mix, and was allowed to proceed for 90 minutes at 37° C. Control reactions included: no enzyme, 5% DMSO (test compound solvent), no compound/solvent, Cordycepin-TP and HCV-796 (IC50 values used as a reference inhibition). Radioactive products were collected by applying the stopped reaction to DE-81 paper, air dried prior to washing with buffer comprising NaH2PO4 and sodium pyrophosphate to remove unincorporated ^32P-GTP in the NTP mix, and rinsed with dH2O followed by 100% ethanol. The DE-81 paper was air dried, squares cut out and placed in scintillation tubes for counting.

The test system of another experiment is HCV Replicon. In words: HCV Replicon inhibition. The experiment is classed as cell-based. The following applies: Hepatitis C virus. (Replicon systems follow genome replication, usually without infectious particles.)

These results are taken from patent US20110110890A1, “Novel Inhibitors of Hepatitis C Virus Replication” (INTERMUNE, INC., priority 2009, published 2011).

T1 sequence (P27958 2421-3011): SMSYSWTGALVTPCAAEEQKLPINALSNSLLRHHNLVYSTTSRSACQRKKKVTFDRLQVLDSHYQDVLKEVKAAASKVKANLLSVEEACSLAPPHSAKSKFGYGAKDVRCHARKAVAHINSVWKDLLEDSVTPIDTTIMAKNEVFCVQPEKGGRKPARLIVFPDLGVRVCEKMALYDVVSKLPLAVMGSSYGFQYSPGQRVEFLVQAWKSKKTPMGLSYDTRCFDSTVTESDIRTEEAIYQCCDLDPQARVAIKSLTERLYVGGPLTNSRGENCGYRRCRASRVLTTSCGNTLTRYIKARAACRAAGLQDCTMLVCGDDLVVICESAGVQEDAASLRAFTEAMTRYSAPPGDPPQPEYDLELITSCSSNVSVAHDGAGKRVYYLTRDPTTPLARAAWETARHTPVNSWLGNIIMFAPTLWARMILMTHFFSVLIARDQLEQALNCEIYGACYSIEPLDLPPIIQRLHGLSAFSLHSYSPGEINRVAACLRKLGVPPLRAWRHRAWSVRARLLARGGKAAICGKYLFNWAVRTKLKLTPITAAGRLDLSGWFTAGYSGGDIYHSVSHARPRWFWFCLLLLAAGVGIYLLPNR

In general, EC50 refers to the concentration giving half of the maximal effect. With `CS(=O)(=O)Nc1ccc2c(c1)S(=O)(=O)N=C(c1c(O)n3cc(F)ccc3c(Cc3cc(F)cc(F)c3)c1=O)N2` [Compound 101], the EC50 on HCV NS5B polymerase and in the experiment on HCV Replicon was less than 100 nM in each case.

On to `CS(=O)(=O)Nc1ccc2c(c1)S(=O)(=O)N=C(c1c(O)n3cc(F)ccc3c(Cc3ccc(F)c(F)c3)c1=O)N2` [Compound 102S], for which the EC50 on HCV NS5B polymerase and in the experiment with HCV Replicon was less than 100 nM in each case.

On to `CS(=O)(=O)Nc1ccc2c(c1)S(=O)(=O)N=C(c1c(O)n3cc(F)ccc3c(Cc3ccc(F)cc3)c1=O)N2` [Compound 103S], for which the concentration giving a half-maximal response (EC50) on HCV NS5B polymerase and in the experiment on HCV Replicon was less than 100 nM throughout.

As for `CC(C)(C)CCc1c(=O)c(C2=NS(=O)(=O)c3cc(NS(C)(=O)=O)ccc3N2)c(O)n2cc(F)ccc12` [Compound 104S], the EC50 at HCV NS5B polymerase and with HCV Replicon was less than 100 nM throughout.

On to `CS(=O)(=O)Nc1ccc2c(c1)S(=O)(=O)N=C(c1c(O)n3ccccc3c(Cc3cc(F)cc(F)c3)c1=O)N2` [Compound 105S], for which the EC50 on HCV NS5B polymerase and with HCV Replicon was less than 100 nM throughout.
